Experimental data: PubChem BioAssay (NCI)
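GI50 marks 50% less growth. TGI: concentration producing complete growth inhibition.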

Assays:
Assay in all cases: NCI tumour cell line growth inhibition, 384-well format
[1] = test system: A498 renal
[2] = test system: SNB-75 CNS
[3] = test system: UACC-257 melanoma
[4] = test system: SN12C renal
[5] = test system: MDA-MB-435 melanoma
[6] = test system: M14 melanoma
[7] = test system: EKVX NSCLC
[8] = test system: SF-268 CNS
[9] = test system: HT29 colon
[10] = test system: T-47D breast
[11] = test system: NCI-H226 lung
[12] = test system: SNB-19 CNS
[13] = test system: UO-31 renal
[14] = test system: HCT-116 colon
[15] = test system: OVCAR-3 ovarian
[16] = test system: OVCAR-4 ovarian
[17] = test system: SK-MEL-5 melanoma
[18] = test system: RXF 393 renal
[19] = test system: HOP-92 NSCLC
[20] = test system: SW-620 colon
[21] = test system: DU-145 prostate
[22] = test system: KM12 colon
[23] = test system: NCI-H322M lung
[24] = test system: ACHN renal
[25] = test system: BT-549 breast
[26] = test system: NCI/ADR-RES ovarian
[27] = test system: OVCAR-5 ovarian
[28] = test system: SK-MEL-28 melanoma
[29] = test system: HL-60(TB) leukemia
[30] = test system: OVCAR-8 ovarian
[31] = test system: NCI-H460 NSCLC
[32] = test system: PC-3 prostate
[33] = test system: RPMI-8226 leukemia
[34] = test system: NCI-H522 lung
[35] = test system: MDA-MB-468 breast
[36] = test system: A549 NSCLC
[37] = test system: NCI-H23 lung
[38] = test system: COLO 205 colon
[39] = test system: HS 578T breast
[40] = test system: U251 glioblastoma
[41] = test system: SF-295 CNS
[42] = test system: 786-0 renal
[43] = test system: HCT-15 colon
[44] = test system: CAKI-1 renal
[45] = test system: SR leukemia
[46] = test system: IGROV1 ovarian
[47] = test system: MOLT-4 leukemia
[48] = test system: SF-539 CNS
[49] = test system: UACC-62 melanoma
[50] = test system: HOP-62 NSCLC
[51] = test system: MCF7 breast
[52] = test system: LOX IMVI melanoma
[53] = test system: HCC-2998 colon
[54] = test system: SK-OV-3 ovarian
[55] = test system: MALME-3M melanoma
[56] = test system: TK-10 renal
[57] = test system: MDA-MB-231 breast

## Nc1cccc2c1CN(C1CCC(=O)NC1=O)C2=O (centres undefined)
[1]
  GI50: > 100 µM
  TGI: > 100 µM
[2]
  GI50: > 100 µM
  TGI: > 100 µM
[3]
  GI50: > 100 µM
  TGI: > 100 µM
[4]
  GI50: > 100 µM
  TGI: > 100 µM
[5]
  GI50: > 100 µM
  TGI: > 100 µM
[6]
  GI50: > 100 µM
  TGI: > 100 µM
[7]
  GI50: > 100 µM
  TGI: > 100 µM
[8]
  GI50: > 100 µM
  TGI: > 100 µM
[9]
  GI50: > 100 µM
  TGI: > 100 µM
[10]
  GI50: > 100 µM
  TGI: > 100 µM
[11]
  GI50: > 100 µM
  TGI: > 100 µM
[12]
  GI50: > 100 µM
  TGI: > 100 µM
[13]
  GI50: > 100 µM
  TGI: > 100 µM
[14]
  GI50: > 100 µM
  TGI: > 100 µM
[15]
  GI50: > 100 µM
  TGI: > 100 µM
[16]
  GI50: > 100 µM
  TGI: > 100 µM
[17]
  GI50: > 100 µM
  TGI: > 100 µM
[18]
  GI50: > 100 µM
  TGI: > 100 µM
[19]
  GI50: > 100 µM
  TGI: > 100 µM
[20]
  GI50: > 100 µM
  TGI: > 100 µM
[21]
  GI50: > 100 µM
  TGI: > 100 µM
[22]
  GI50: > 100 µM
  TGI: > 100 µM
[23]
  GI50: > 100 µM
  TGI: > 100 µM
[24]
  GI50: > 100 µM
  TGI: > 100 µM
[25]
  GI50: > 100 µM
  TGI: > 100 µM
[26]
  GI50: > 100 µM
  TGI: > 100 µM
[27]
  GI50: > 100 µM
  TGI: > 100 µM
[28]
  GI50: > 100 µM
  TGI: > 100 µM
[29]
  GI50: > 100 µM
  TGI: > 100 µM
[30]
  GI50: > 100 µM
  TGI: > 100 µM
[31]
  GI50: > 100 µM
  TGI: > 100 µM
[32]
  GI50: > 100 µM
  TGI: > 100 µM
[33]
  GI50: > 100 µM
  TGI: > 100 µM
[34]
  GI50: > 100 µM
  TGI: > 100 µM
[35]
  GI50: > 100 µM
  TGI: > 100 µM
[36]
  GI50: > 100 µM
  TGI: > 100 µM
[37]
  GI50: > 100 µM
  TGI: > 100 µM
[38]
  GI50: > 100 µM
  TGI: > 100 µM
[39]
  GI50: > 100 µM
  TGI: > 100 µM
[40]
  GI50: > 100 µM
  TGI: > 100 µM
[41]
  GI50: > 100 µM
  TGI: > 100 µM
[42]
  GI50: > 100 µM
  TGI: > 100 µM
[43]
  GI50: > 100 µM
  TGI: > 100 µM
[44]
  GI50: > 100 µM
  TGI: > 100 µM
[45]
  GI50: > 100 µM
  TGI: > 100 µM
[46]
  GI50: > 100 µM
  TGI: > 100 µM
[47]
  GI50: > 100 µM
  TGI: > 100 µM
[48]
  GI50: > 100 µM
  TGI: > 100 µM
[49]
  GI50: > 100 µM
  TGI: > 100 µM
[50]
  GI50: > 100 µM
  TGI: > 100 µM
[51]
  GI50: > 100 µM
  TGI: > 100 µM
[52]
  GI50: > 100 µM
  TGI: > 100 µM
[53]
  GI50: > 100 µM
  TGI: > 100 µM
[54]
  GI50: > 100 µM
  TGI: > 100 µM
[55]
  GI50: > 100 µM
  TGI: > 100 µM
[56]
  GI50: > 100 µM
  TGI: > 100 µM
[57]
  GI50: > 100 µM
  TGI: > 100 µM
